The record followed here is PubChem BioAssay (NCI).

Some test systems named below: 786-0 renal; NCI-H23 lung; BT-549 breast; MDA-MB-435; A498 renal; HOP-92 NSCLC; UO-31 renal; SNB-75 CNS; K-562 leukemia; HCT-116 colon.
What all share (assay): NCI anticancer screen, dose series, 48 h

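48-hour exposure; five concentrations; linearly interpolated endpoints. Here, GI50 denotes the concentration required for 50% inhibition of growth. The concentration for full growth arrest is given as TGI.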 Bounds are passed on as bounds.

As to `COc1cccc2c1C(=O)c1c(O)c3c(c(O)c1C2=O)C[C@@](O)(C(=O)CO)C[C@@H]3O[C@H]1C[C@H](N)[C@@H](O)[C@H](C)O1`, the GI50 in the experiment on 786-0 renal is 0.123 µM; in the experiment with NCI-H23 lung, 0.122 µM; in the experiment on BT-549 breast it was 0.128 µM; with MDA-MB-435 it was 0.465 µM; with A498 renal, 0.134 µM; with HOP-92 NSCLC, 0.0743 µM. In addition, the GI50 in the experiment with UO-31 renal is 0.866 µM; in the experiment with SNB-75 CNS it was 0.084 µM; in the experiment on K-562 leukemia, 0.147 µM; in the experiment with HCT-116 colon it was 0.112 µM. Moreover, the TGI in the experiment on 786-0 renal worked out at 1.86 µM; with NCI-H23 lung it was 0.953 µM; in the experiment on BT-549 breast it was 0.474 µM; with MDA-MB-435 it was 1.29 µM; with A498 renal it was 1.06 µM; with HOP-92 NSCLC, 0.697 µM. Further, the TGI was 5.89 µM in the experiment with UO-31 renal, 0.634 µM in the experiment with SNB-75 CNS, 5.05 µM with K-562 leukemia and 5.17 µM in the experiment with HCT-116 colon.
On to `O=C1C=CC[C@H](/C=C/c2ccccc2)O1`, for which the GI50 in the experiment with 786-0 renal was 6.28 µM; in the experiment on NCI-H23 lung it was 2.14 µM; in the experiment on BT-549 breast, 2.28 µM; in the experiment with MDA-MB-435 it was 1.81 µM; with A498 renal, 1.45 µM; in the experiment on HOP-92 NSCLC it was 1.19 µM. Also, the results for the GI50 with UO-31 renal, in the experiment on SNB-75 CNS and with HCT-116 colon were 3.89 µM, 0.394 µM and 1.72 µM, respectively. In addition, the TGI in the experiment with 786-0 renal came to 24.3 µM; in the experiment on NCI-H23 lung it was 10.7 µM; with BT-549 breast it was 19.3 µM; in the experiment on MDA-MB-435 it was 14.8 µM; in the experiment with A498 renal, 6.91 µM; with HOP-92 NSCLC it was 18.3 µM. Further, the TGI in the experiment on UO-31 renal is 8.99 µM; in the experiment with SNB-75 CNS it was 4.69 µM; in the experiment with K-562 leukemia, greater than 100 µM; in the experiment on HCT-116 colon it was 13.9 µM.
With `COC(=O)C1CCCN1C(=O)[C@@H]1CCCN1C(=O)[C@H](Cc1c[nH]c2ccccc12)NC(=S)Nc1cc(C(F)(F)F)cc(C(F)(F)F)c1` (some centres undefined), the GI50 is 2.52 µM with 786-0 renal; 2.78 µM with NCI-H23 lung; 2.88 µM in the experiment on BT-549 breast; 3.03 µM in the experiment on MDA-MB-435; 2.15 µM in the experiment on A498 renal; 3.63 µM in the experiment with UO-31 renal. Further, the GI50 in the experiment with SNB-75 CNS is 2.48 µM; with K-562 leukemia, 2.92 µM; with HCT-116 colon, 1.72 µM. For the same compound, the TGI with 786-0 renal is 6.86 µM; in the experiment on NCI-H23 lung, 10 µM; in the experiment on BT-549 breast it was 8.03 µM; in the experiment on MDA-MB-435, 12.4 µM; with A498 renal, 6.65 µM; in the experiment on UO-31 renal, 14.5 µM. In addition, the TGI worked out at 8.92 µM in the experiment with SNB-75 CNS, 13.3 µM in the experiment on K-562 leukemia and 3.34 µM in the experiment with HCT-116 colon.
As for `C=C1C(=O)O[C@H]2[C@H]1CCC(/C=N/c1ncc(Br)cc1N)=C\CC[C@@]1(C)O[C@@H]21`, the GI50 in the experiment with 786-0 renal was 1.72 µM; in the experiment on NCI-H23 lung, 3.18 µM; in the experiment on BT-549 breast it was 1.82 µM; in the experiment with MDA-MB-435 it was 2.29 µM; with A498 renal, 4.82 µM; with HOP-92 NSCLC it was 1.31 µM. Also, the GI50 in the experiment with UO-31 renal was 1.28 µM; with SNB-75 CNS it was 3.38 µM; with K-562 leukemia it was 2.11 µM; in the experiment on HCT-116 colon, 1.06 µM. The TGI with 786-0 renal was 3.52 µM; in the experiment on NCI-H23 lung it was 17.2 µM; with BT-549 breast it was 6.49 µM; in the experiment with MDA-MB-435 it was 7.51 µM; in the experiment with A498 renal it was 17.5 µM; in the experiment with HOP-92 NSCLC it was 3.74 µM. Besides, the TGI with UO-31 renal was 2.63 µM; with SNB-75 CNS, 18 µM; with K-562 leukemia, greater than 100 µM; in the experiment on HCT-116 colon, 2.46 µM.
With `Nc1nc(N)c2c(n1)NC(c1ccc(F)cc1)C1CCc3ccccc3C1=N2` (centres undefined), the GI50 in the experiment on 786-0 renal was 6.9 µM; in the experiment on NCI-H23 lung, 4.06 µM; in the experiment on BT-549 breast, 3.89 µM; with MDA-MB-435, 2.84 µM; in the experiment with A498 renal, 2.87 µM; in the experiment on HOP-92 NSCLC, 1.17 µM. In addition, the results for the GI50 in the experiment on UO-31 renal, with SNB-75 CNS and in the experiment with HCT-116 colon were 3.34 µM, 11.3 µM and 3.04 µM, respectively. Moreover, the TGI in the experiment with 786-0 renal was 20.1 µM; with NCI-H23 lung, 16.6 µM; with BT-549 breast, 16.6 µM; in the experiment on MDA-MB-435 it was 11.6 µM; in the experiment with A498 renal, 9.08 µM; with HOP-92 NSCLC it was 6.59 µM. Moreover, the TGI in the experiment with UO-31 renal was 17.3 µM; in the experiment with SNB-75 CNS it was 23.8 µM; with HCT-116 colon it was 11.9 µM.
Regarding `CN1C(=O)C(CC(=O)O)NC1=S` (centres undefined), the TGI in the experiment on 786-0 renal, in the experiment on NCI-H23 lung, with BT-549 breast, with MDA-MB-435, in the experiment with A498 renal and in the experiment with HOP-92 NSCLC was greater than 100 µM throughout. The TGI in the experiment on UO-31 renal, in the experiment with SNB-75 CNS, in the experiment with K-562 leukemia and in the experiment with HCT-116 colon was greater than 100 µM throughout.
Consider `Oc1ccccc1C=Nc1nc(SCc2ccccc2)nc2[nH]ncc12`, for which the GI50 in the experiment on 786-0 renal is 89.4 µM; with NCI-H23 lung it was 61.2 µM; with BT-549 breast, greater than 100 µM; in the experiment on MDA-MB-435 it was 35.8 µM; with HOP-92 NSCLC it was 12.4 µM; in the experiment on UO-31 renal it was 94.8 µM. The GI50 is greater than 100 µM in the experiment on SNB-75 CNS and 35.2 µM with K-562 leukemia. In addition, the TGI was greater than 100 µM in the experiment on 786-0 renal; greater than 100 µM in the experiment on NCI-H23 lung; greater than 100 µM in the experiment on BT-549 breast; greater than 100 µM in the experiment with MDA-MB-435; 71.1 µM in the experiment with HOP-92 NSCLC; greater than 100 µM with UO-31 renal. The TGI in the experiment on SNB-75 CNS and in the experiment on K-562 leukemia was greater than 100 µM in each case.
`COc1cc(NC(=O)CSc2nc3ccc(C)cc3c(=O)n2Cc2ccccc2)cc(OC)c1OC`: the GI50 is 3.2 µM with 786-0 renal; 8.3 µM with NCI-H23 lung; 2.98 µM in the experiment with BT-549 breast; 9.55 µM in the experiment on MDA-MB-435; 1.01 µM in the experiment on A498 renal; 5.97 µM in the experiment with UO-31 renal. For the same compound, the GI50 in the experiment on SNB-75 CNS was 1.82 µM; in the experiment on K-562 leukemia, greater than 100 µM; in the experiment on HCT-116 colon, 3.38 µM. Further, the TGI was 14.6 µM with 786-0 renal; 42.3 µM in the experiment on NCI-H23 lung; 20 µM in the experiment with BT-549 breast; greater than 100 µM with MDA-MB-435; 5.55 µM in the experiment with A498 renal; greater than 100 µM with UO-31 renal. Moreover, the values for the TGI with SNB-75 CNS, with K-562 leukemia and in the experiment on HCT-116 colon were 4.33 µM, greater than 100 µM and greater than 100 µM, respectively.
